Consider two compounds from patent US4680286A, “Use of selenium-containing compounds for negating the toxic effects of gold compounds used in the treatment of rheumatoid arthritis, and a novel selenium-containing gold compound and use thereof as an anti-rheumatoid arthritis medicine” (priority 1985, dated 1987).

In series [1] the test system is cadmium-induced testicular demage. As to conditions: Kar, Das and Mukerji 1960; cited from earlier work.
In series [2] the test system is toxicity of mercury, silver and thallium. As to conditions: observed by other researchers; cited from earlier work.
For series [3], the system named is toxic effects of Na3 Au(S2 O3)2.2H2 O. The series can be described thus: Gold toxicity in mice given sodium selenite prior to (drinking water) or after (injection) the gold compound. The class given is in vivo. As to conditions: gold at or slightly exceeding reported LD50, vs gold-only control. On the procedure: (§1) A number of experiments in which sodium selenite was given to mice both prior to and after treatment with a gold compound were conducted. In the first series of experiments in which the selenium compound was administered prior to the gold injection, mice were given sodium selenite in their drinking water over an extended period of time. Periodically, the mice were sacrificed and the kidney and liver were analyzed to monitor the accumulation of selenium. When observed selenium levels in the liver were on the order of 5 ppm, the remaining animals were given the gold compound at levels slightly exceeding the reported LD50 value.
In the second series of experiments, in which sodium selenite were injected after the gold injection, the mice were given dosages of gold compounds at the reported LD50 value and were then injected with sodium selenite. In both series of experiments, a control group which received the gold compound but no selenium compound was maintained. […] In all cases, the gold was administered as Na3 Au(S2 O3)2.2H2 O.

Series [4] in a line: Accumulation of selenium in tissue of mice. The class given is in vivo. As to conditions: sodium selenite in drinking water over an extended period, level at which gold was given. As for the experimental part:
as §1
In these experiments, large groups of mice were fed other type selenium compounds, which were sodium selenate, selenium yeast and selenocystine. Periodically, one would be sacrificed and the selenium concentration of the kidney and liver would be determined. When above 5 to about 7 ppm selenium concentrations were obtained, the remaining mice were given injections of Na3 Au(S2 O3)2.2H2 O at the reported LD50 value. A control group that received no dietary selenium was maintained. This control group was given the gold salt at the same time as the selenium accumulated mice. The toxic effects of the gold was then compared in the two groups of mice.

`[Se]` [selenium]: in series [1], the “protection against cadmium-induced testicular damage” value is “prevents cadmium-induced testicular demage”. The “protection against the toxicity of mercury, silver and thallium” value in series [2] was “Protection effects”.

On to `O=[Se](O)O` [sodium selenite], for which the “toxic effects compared with mice which received only the gold treatment” value in series [3] is on record as “markedly reduced toxic effects”. Also, in series [4], the “observed selenium levels in the liver” value was approximately 5 ppm.
